{"source": "paper PMC2362731", "about": "“Phase I study of Carzelesin (U-80,244) given (4-weekly) by intravenous bolus schedule” (British Journal of Cancer, 1999)", "key": {"[1]": {"test_system": "granulocytes (ANC), white blood cells (WBC), platelets", "test": "Pharmacokinetic-pharmacodynamic relationship of bone marrow toxicity (%decr vs AUC)", "format": "in vivo", "from_the_text": "Carzelesin (U-80,244, Figure 1A) is a cyclopropylpyrroloindole (CPI) prodrug analogue of CC-1065. […] CPI drugs are a class of compounds with unique DNA interactive properties. These agents fit into the minor groove region of DNA, and the CPI function in the molecule mediates a covalent binding to the N3 position of adenine in A-T rich regions, thus forming DNA adducts in a sequence selective fashion (Hurley et al, 1984; Reynolds et al, 1985). Three new CPIs have now been developed. […] Bizelesin differs from the classical CPI drugs in that it contains two chloromethyl functions, which are both converted (via intramolecular rearrangements) to the CPI alkyl- ating species that interact with DNA. Consequently, this agent is capable of forming DNA interstrand cross-links (Lee et al, 1991). […] Therefore, efforts were directed to modu- late the alkylation rate by the preparation of CPI prodrugs that would require chemical or enzymatic conversion. The activation of Carzelesin is a two-step reaction with hydrolysis of the phenyl- urethane substituent to form the intermediate compound U-76,073, followed by ring closure to form the active product U-76,074 (Figure 1B). […] This higher efficacy may be related to the pharmacologic features of the compound. […] Phase I study of Carzelesin (U-80,244) given (4-weekly) by intravenous bolus schedule A Awada1, CJA Punt2, MJ Piccart1, O Van Tellingen3, L Van Manen2, J Kerger1, Y Groot4, J Wanders4, J Verweij5 and DJTh Wagener2 1Institut Jules Bordet, Bd de Waterloo 125, 1000 Brussels, Belgium; 2University Hospital, Geert Grooteplein 8, Box 9101, 6500 HB Nijmegen, The Netherlands; 3The Netherlands Cancer Institute (Antoni van Leeuwenhoek Huis), Plesmanlaan 121, 1066 CX Amsterdam, The Netherlands; 4European Organization for Research and Treatment of Cancer - New Drug Development Office, PO Box 7057, Amsterdam, The Netherlands; 5Rotterdam Cancer Institute, Groene Hilledijk 301, 3075 EA Rotterdam, The Netherlands; on behalf of the EORTC Early Clinical Studies Group and EORTC NDDO Summary Carzelesin is a cyclopropylpyrroloindole analogue which acts as a DNA-sequence-specific alkylating agent. In this phase I study, Carzelesin was given as a 4-weekly 10 min IV infusion to 51 patients with advanced solid tumours. Patients received a median of two courses (range 1-5) at one of nine dose levels: […]. According to NCI-CTC criteria, non- haematological toxicities (grade 1/2) included fever, nausea and vomiting, mucositis and anorexia, none of which was clearly dose related. […] The concentration of U-76,074 (active metabolite) extended above the lower limit of quantitation (1 ng ml-1) for short periods of time and only at the higher dose levels. […]"}, "mouse": {"test_system": "mouse", "conditions": "equivalent of mouse LD10; ref EORTC-NDDO, 1992; cited from earlier work"}, "[2]": {"test_system": "tumour cells cultured in vitro", "design": "method as in Li et al, 1992", "conditions": "compared with adozelesin; ref Li et al, 1992; cited from earlier work"}}, "data": [{"compound": "CCN(CC)c1ccc2cc(C(=O)Nc3ccc4[nH]c(C(=O)N5C[C@@H](CCl)c6c5cc(OC(=O)Nc5ccccc5)c5[nH]cc(C)c65)cc4c3)oc2c1", "note": "[Carzelesin]", "values": [{"measurement": "AUC in other patients with marked toxicity", "setting": "[1]; human, in vivo", "result": "less than 20 ng ml.h-1"}, {"measurement": "highest AUC observed in this series", "setting": "[1]; patient at 300 with only very modest toxicity", "result": 43.2, "unit": "ng·mL/h"}, {"measurement": "%decr in ANC", "setting": "[1]; second course, exception patient treated at 300", "result": 82, "unit": "%"}, {"measurement": "MELD10", "setting": "mouse", "result": 840, "unit": "g m-2"}, {"measurement": "potency against tumour cells cultured in vitro", "setting": "[2]", "result": "less potent than adozelesin"}]}]}
